From ChEMBL document CHEMBL4118045, “Vitepyrroloids A-D, 2-Cyanopyrrole-Containing Labdane Diterpenoid Alkaloids from the Leaves of Vitex trifolia” (J Nat Prod, 2017)
pIC50: −log10 of the molar value. Activity calls are given as the source filed them. The rule behind the calls is not given here.

What was measured:
[1] = test system: CNE-2; test: Cytotoxicity against human CNE2 cells assessed as reduction in cell viability after 3 days by MTT assay; format: functional, cell-based
[2] = test system: CNE; test: Cytotoxicity against human CNE1 cells assessed as reduction in cell viability after 3 days by MTT assay; format: functional, cell-based

Compound	Activity [1]	Activity [2]	pIC50 ([1]; CNE-2, 72 h)	pIC50 ([2]; 72 h)
CCOC(=O)CCCn1ccc(CC[C@@]2(O)[C@H](C)CC[C@H]3C(C)(C)CCC[C@@]32C)c1C#N	inactive	inactive		
CC(=O)O[C@H]1CC[C@@]2(C)[C@@H](CC[C@@H](C)[C@]2(O)CCc2ccn(CCCC(=O)O)c2C#N)C1(C)C	inactive	inactive		
CC(=O)O[C@@H]1C[C@@H](C)[C@](O)(CCc2ccn(CCO)c2C#N)[C@@]2(C)CCCC(C)(C)[C@H]12	inactive	inactive		
C[C@@H]1CC[C@H]2C(C)(C)CCC[C@]2(C)[C@@]1(O)CCc1cc[nH]c1C#N			< 5.00	5.06
